One data set has as its system HeLa cells. Put plainly: Cytotoxicity with cell growth-cytotoxicity measurement kit CCK-8. Format: cell-based. The following applies: 0.1, 0.5, 1, 10, 20, 40 or 50 μM, 24 hours. On the procedure: Further, HeLa cells were plated on a 96-well plate, and allowed to adhere to a glass surface. Thereafter, PC6S was added to the medium (to a final concentration of 0.1, 0.5, 1, 10, 20, 40, or 50 μM), and culture was performed for 24 hours. After washing, cytotoxicity was evaluated using a cell growth-cytotoxicity measurement kit CCK-8. Two hours after the addition of the reagent, the absorbance was measured.

Data set [1] relates to lipid droplets in HeLa cells. Put plainly: Fluorescence imaging of lipid droplets in oleic acid-treated HeLa cells. It is filed as cell-based. The text has this:
Since LipiDye requires use of an excitation wavelength of about 405 nm, there is a concern about phototoxicity to cells in cases of long observation.

In data set [2] the test system is lipid droplets in the liver. Put plainly: Fluorescence intensity and lifetime imaging of liver lipid droplets in normal and fatty-liver model mice. It is filed as in vivo, mice (C57BL/6J). On the procedure: Fluorescence imaging of lipid droplets in a body tissue, and of an adipose tissue, using PC6S is described below. […] Therefore, PC6S cannot be administered to mice. In view of this, 5 mM stock solution was added (at 10% in terms of the volume ratio) to physiological saline supplemented with 10% bovine serum albumin. […] Regarding administration of MNs-NB, a stock solution in DMSO is directly administered to mice. Since administration of DMSO may cause death of mice from shock, the administration method in the present invention is thought to be a safer method. Here, 100 to 200 μL of 500 μM solution (50 to 100 nmol) was administered to the tail vein of a mouse under anesthesia, and a fluorescence imaging experiment was carried out using a confocal laser microscope (excitation wavelength, 488 nm; monitoring wavelength, 510 to 560 nm). In the present experiment, a microscope capable of acquiring fluorescence lifetime images as well as fluorescence intensity images (FLIM: fluorescence lifetime imaging microscope) (Simple-Tau-150-DX; Becker & Hickl) was used. The animal experiment was carried out in accordance with the animal experiment safety regulations in Gunma University.
Fatty-liver model mice are known to have a liver containing a larger amount of lipid droplets accumulated therein compared to normal mice. Here, fatty-liver model mice were prepared by feeding mice (C57BL/6J) with an ultra-high-fat, choline-deficient, methionine-reduced diet for 2 weeks or 10 weeks. […] Furthermore, in the mouse fed with the fatty diet for 10 weeks, intense fluorescence was found from structures having shapes different from those of lipid droplets, in addition to the fluorescence from lipid droplets. This is thought to be autofluorescence due to infiltration of macrophage-derived cells caused by liver fibrosis.

SMILES strings stand for the structures.

Data on one compound can be found in US12306194B2, “Reagent for fluorescence imaging of lipid droplets in cell and tissue” (NATIONAL UNIVERSITY CORPORATION GUNMA UNIVERSITY, priority 2019, dated 2025).

For `CCN(CC)c1ccc2cc3cc(-c4nc5ccccc5s4)c(=O)oc3cc2c1` [PC6S, 3-(Benzo[d]thiazol-2-yl)-8-(diethylamino)-2H-benzo[g]chromen-2-one], the cytotoxicity entry with HeLa cells was “no remarkable cytotoxicity was found at any concentration”. Besides, the “imaging of lipid droplets / lipid droplet selectivity in HeLa cells” value in data set [1] (100 nM reagent, 30 minutes, 400 μM oleic acid 48 hours) was “capable of clear imaging of lipid droplets”. Besides, the “fluorescence intensity of HeLa cells” value in data set [1] (100 nM reagent, 30 minutes, compared with BODIPY493/503 or Lipi Green) is reported as “higher fluorescence intensities”. In addition, in data set [1] (summary grade, Table 3), the Brightness in cells result is on record as “⊚” and the “Selectivity for lipid droplets” value is given as “◯”. Besides, in data set [2] (100 nmol, tail vein, fatty-liver model mouse (Week 2)), the “lipid droplet imaging of liver surface” value was “large lipid droplets were imaged over the entire liver surface”. Also, the “lipid droplet imaging of liver surface” value in data set [2] (100 nmol, tail vein, mouse fed with a normal diet) was “small lipid droplets could be found in hepatocytes”. The “fluorescence lifetime imaging of liver surface” value in data set [2] (100 nmol, tail vein, mouse fed with the fatty diet for 10 weeks) is “capable of distinguishing between the autofluorescence (blue) and the PC6S fluorescence (orange)”. In addition, the “Imaging of lipid dropletts in a tissue” value in data set [2] (summary grade, Table 3) is “⊚”.
